Target: Serine/threonine-protein kinase PLK1 (Homo sapiens, UniProt P53350)
Assay: PLK1 polo-box domain peptide-binding inhibitors, SAR follow-up, biochemical, fluorescence polarization, synthesized analogs, concentration response (AID 1057)

Chain of Serine/threonine-protein kinase PLK1 (P53350 whole entry, the tested form may be a part): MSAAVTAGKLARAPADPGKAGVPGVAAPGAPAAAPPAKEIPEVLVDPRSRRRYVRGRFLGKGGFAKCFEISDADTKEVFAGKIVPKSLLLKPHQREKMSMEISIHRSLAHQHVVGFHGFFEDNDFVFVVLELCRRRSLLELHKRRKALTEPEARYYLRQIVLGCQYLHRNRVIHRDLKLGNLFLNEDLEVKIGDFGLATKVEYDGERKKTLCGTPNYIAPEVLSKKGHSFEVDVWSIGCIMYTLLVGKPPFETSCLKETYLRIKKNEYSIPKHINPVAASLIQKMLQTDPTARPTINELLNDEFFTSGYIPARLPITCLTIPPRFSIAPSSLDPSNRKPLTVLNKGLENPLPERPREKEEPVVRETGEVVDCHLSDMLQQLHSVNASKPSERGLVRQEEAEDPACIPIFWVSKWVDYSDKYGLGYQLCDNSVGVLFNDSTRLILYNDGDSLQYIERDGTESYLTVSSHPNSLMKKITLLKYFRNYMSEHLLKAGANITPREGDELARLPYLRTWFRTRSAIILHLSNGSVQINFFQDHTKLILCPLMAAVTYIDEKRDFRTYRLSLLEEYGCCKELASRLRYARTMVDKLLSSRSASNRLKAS

Compound | IC50 [µM]
CCOC(=O)c1ccc(NC(=O)c2c(O)[nH]c(=O)[nH]c2=O)cc1 | > 50
CCOC(=O)c1ccccc1NC(=O)c1c(O)[nH]c(=O)[nH]c1=O | > 50
CCOC(=O)c1ccccc1NC(=O)c1c(O)[nH]c(=S)[nH]c1=O | > 50
O=C(Nc1ccccc1)c1c(O)[nH]c(=O)[nH]c1=O | > 50
O=C(Nc1ccccc1)c1c(O)[nH]c(=S)[nH]c1=O | > 50
CCOc1ccc(NC(=O)c2c(N)n(C)c(=O)[nH]c2=O)cc1 | > 50
CC(NNC(=O)c1ccncc1)=C1C(=O)NC(=O)NC1=O | > 50
Cc1ccc(NC(=O)c2ccc(F)cc2F)cc1 [2,4-bis(fluoranyl)-N-(4-methylphenyl)benzamide] | > 50
O=C(Nc1ccccc1)c1ccc(F)cc1F [2,4-bis(fluoranyl)-N-phenyl-benzamide] | > 50
CCOc1ccc(NC(=O)c2ccc(F)cc2F)cc1 [2,4-difluoro-N-p-phenetyl-benzamide] | > 50
CCOC(=O)c1ccccc1NC(=O)c1ccc(F)cc1F [2-[(2,4-difluorobenzoyl)amino]benzoic acid ethyl ester] | > 50
CCOC(=O)c1cccc(NC(=O)c2ccc(F)cc2F)c1 [3-[(2,4-difluorobenzoyl)amino]benzoic acid ethyl ester] | > 50
CCOC(=O)c1cccc(NC(=O)c2c(O)[nH]c(=O)[nH]c2=O)c1 [3-[[(6-hydroxy-2,4-dioxo-1H-pyrimidin-5-yl)-oxomethyl]amino]benzoic acid ethyl ester] | > 50
CCCCOC(=O)c1ccc(NC(=O)c2ccc(F)cc2F)cc1 [4-[(2,4-difluorobenzoyl)amino]benzoic acid butyl ester] | > 50
CCOC(=O)c1ccc(NC(=O)c2ccc(F)cc2F)cc1 [4-[(2,4-difluorobenzoyl)amino]benzoic acid ethyl ester] | > 50
CCOC(=O)c1ccc(NS(=O)(=O)c2c(N)n(C)c(=O)n(C)c2=O)cc1 [4-[(4-amino-1,3-dimethyl-2,6-dioxo-5-pyrimidinyl)sulfonylamino]benzoic acid ethyl ester] | > 50

Compound | IC50 [µM]
CCOC(=O)c1ccc(NC(=O)c2c(N)n(C)c(=O)n(C)c2=O)cc1 [4-[(4-amino-2,6-diketo-1,3-dimethyl-pyrimidine-5-carbonyl)amino]benzoic acid ethyl ester] | > 50
CCCCOC(=O)c1ccc(NC(=O)c2c(N)n(C)c(=O)[nH]c2=O)cc1 [4-[[(6-amino-1-methyl-2,4-dioxo-5-pyrimidinyl)-oxomethyl]amino]benzoic acid butyl ester] | > 50
CCCCOC(=O)c1ccc(NC(=O)c2c(O)[nH]c(=O)[nH]c2=O)cc1 [4-[[(6-hydroxy-2,4-dioxo-1H-pyrimidin-5-yl)-oxomethyl]amino]benzoic acid butyl ester] | > 50
Cn1c(N)c(S(=O)(=O)NCc2ccccc2)c(=O)n(C)c1=O [4-amino-1,3-dimethyl-2,6-dioxo-N-(phenylmethyl)-5-pyrimidinesulfonamide] | > 50
Cc1cccc(NNC=C2C(=O)NC(=S)NC2=O)c1 [5-[[2-(3-methylphenyl)hydrazinyl]methylidene]-2-sulfanylidene-1,3-diazinane-4,6-dione] | > 50
CCOC(=O)CCCCCNC(=O)c1ccc(F)cc1F [6-[(2,4-difluorobenzoyl)amino]hexanoic acid ethyl ester] | > 50
CCOC(=O)CCCCCNC(=O)C1C(=O)NC(=O)NC1=O [6-[[hydroxy-(2,4,6-triketohexahydropyrimidin-5-ylidene)methyl]amino]hexanoic acid ethyl ester] | > 50
CCOc1ccc(NC(=O)c2c(O)[nH]c(=O)[nH]c2=O)cc1 [N-(4-ethoxyphenyl)-6-hydroxy-2,4-dioxo-1H-pyrimidine-5-carboxamide] | > 50
CCOC(=O)c1ccc(NC(=O)c2c(N)n(C)c(=O)[nH]c2=O)cc1 [UPDDI-00294856] | > 50
Cn1c(N)c(C(=O)Nc2ccccc2)c(=O)[nH]c1=O [UPDDI-00398616] | > 50
CCOC(=O)c1cccc(NC(=O)c2c(N)n(C)c(=O)[nH]c2=O)c1 [UPDDI-00398617] | > 50
CCOC(=O)c1ccc(NC(=O)c2c(NCc3ccccc3)[nH]c(=O)[nH]c2=O)cc1 [UPDDI-00398618] | > 50
CCOC(=O)c1ccccc1NC(=O)c1c(N)n(C)c(=O)[nH]c1=O [ethyl 2-[[6-azanyl-1-methyl-2,4-bis(oxidanylidene)pyrimidin-5-yl]carbonylamino]benzoate] | > 50
CCOC(=O)c1cccc(NC(=O)c2c(NCc3ccccc3)[nH]c(=O)[nH]c2=O)c1 [ethyl 3-[[2,4-bis(oxidanylidene)-6-[(phenylmethyl)amino]-1H-pyrimidin-5-yl]carbonylamino]benzoate] | > 50
CCOC(=O)c1ccc(NC(=O)c2c(N)n(Cc3ccccc3)c(=O)[nH]c2=O)cc1 [ethyl 4-[(6-amino-1-benzyl-2,4-dioxopyrimidine-5-carbonyl)amino]benzoate] | > 50

Reference: BindingDB's records for doi:10.7270/Q280511V (University of Pittsburgh, 2008)
